The values below come from ChEMBL document CHEMBL1133488 (Bioorg Med Chem Lett, 2000).

The assay addresses T1, Scytalone dehydratase (Magnaporthe oryzae (strain 70-15 / FGSC 8958) (Rice blast fungus)(Pyricularia oryzae), UniProt P56221).
T1 sequence (P56221 whole entry): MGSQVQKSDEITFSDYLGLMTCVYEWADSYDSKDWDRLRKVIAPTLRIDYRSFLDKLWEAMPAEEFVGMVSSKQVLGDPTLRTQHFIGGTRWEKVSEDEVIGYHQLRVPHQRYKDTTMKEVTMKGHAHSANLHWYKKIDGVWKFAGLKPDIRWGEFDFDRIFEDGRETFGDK
The assay can be described thus: The compound was evaluated for its binding affinity against wild type scytalone dehydratase (SD). Set-up: species or system Pyricularia grisea.

Structures are written as SMILES.

In turn, `CC(C)NC(=O)c1cc(F)ccc1O` returned a Ki of 450 nM.
